Results: patent US20030069169A1, “Co-administration of melanocortin receptor agonist and phosphodiesterase inhibitor for treatment of cyclic-AMP associated disorders” (priority 2001, published 2003)

Experiments:
human MC-1R = molecular target: T1, human MC-1R (Homo sapiens, UniProt Q01726); assay: MC-1R cAMP SPA assay in HBL cells; assay type: cell-based; conditions: read-out: potency as agonist of the MC-1R
T1 construct: HBL cells, a human melanoma cell line licensed from Prof; G. Ghanem; endogenous in cells; host or cells: HBL human melanoma cells
Description: HBL cells, a human melanoma cell line licensed from Prof. G. Ghanem (Lab. of Oncology & Exp. Surgery, Free University of Brussels, Brussels, Belgium) were used as a source of the human MC-1R. cAMP was measured using the cAMP SPA Direct Screening Assay System from Amersham (RPA 559). 20,000 HBL cells were plated into each well of a half-area 96 well white plate and were used between 16-48 hours after plating. Cells were incubated at 37° C. for 15 minutes in 25 μM IBMX to inhibit phosphodieterase activity. As per kit instructions, Assay Buffer Concentrate was diluted 1 to 50 with dH2O to prepare Assay Buffer (50 mM acetate buffer containing 0.01% sodium azide). Vials containing rabbit anti-succinyl cAMP serum and the tracer, adenosine 3′,5′-cyclic phosphoric acid 2′-0-succinyl-3-[^125I] iodotyrosine methyl ester, were resuspended with 7.5 ml Assay Buffer. SPA anti-rabbit reagent (donkey anti-rabbit IgG coupled to SPA PVT beads) was resuspended with 15 ml Assay Buffer. All reagents were stored at 4° C. after reconstitution. Melanocortin ligands or compounds were prepared in DMSO and added to the IBMX-treated cells as 100×concentrated stocks. […] Plates were subsequently counted for 6 minutes per sample in a TopCount scintillation reader with background subtraction. Data was analyzed in relation to a cAMP standard curve.

[1] = tested on: LPS-induced TNF-α production; assay: endotoxin-induced TNF-α accumulation model in Balb/C mice; assay type: in vivo; conditions: for % Inhibition of LPS-induced TNF-α levels: balb/C mice, rolipram 10 ug/kg, NDP-MSH 2.5 mg/kg, alone or combined, co-administered with LPS by tail vein injection
Description: Melanocortin receptor agonists and cAMP-PDE inhibitors were evaluated for anti-inflammatory activity in vivo by using an endotoxin-induced TNF-α accumulation model in Balb/C mice. Compounds were administered either by s.c injection or co-injected with endotoxin in the tail vein. Both rolipram and melanocortin agonists inhibit endotoxin-induced TNF-α accumulation in this model.
FIG. 1 reports the results of administration of the compound of Example 11, below, in this model. Example 11 was administered by s.c. injection to five mice for each dose of 1.2 μmol/kg, 3.7 μmol/kg, 11.1 μmol/kg, 33.3 μmol/kg, and 100 μmol/kg. The compound was administered 1 hour prior to the LPS-induced challenge.
A second experiment was conducted in which the effect of the cAMP-PDE inhibitor rolipram and the melanocortin receptor agonist NDP-MSH was determined.
The four bar graphs of FIG. 2 reflect the inhibition in LPS-induced TNF-α a production in balb/C mice upon administration of (1) no agent (control); (2) 10 ug/kg ROLIPRAM (3) 2.5 mg/kg NDP-MSH and (4) 10 ug/kg ROLIPRAM in combination with 2.5 mg/kg NDP-MSH. Compounds were co-administered with LPS by tail vein injection. […] Administration of 2.5 mg/kg NDP-MSH inhibited TNF-α levels by 64%.

T1 sequence (Q01726 whole entry): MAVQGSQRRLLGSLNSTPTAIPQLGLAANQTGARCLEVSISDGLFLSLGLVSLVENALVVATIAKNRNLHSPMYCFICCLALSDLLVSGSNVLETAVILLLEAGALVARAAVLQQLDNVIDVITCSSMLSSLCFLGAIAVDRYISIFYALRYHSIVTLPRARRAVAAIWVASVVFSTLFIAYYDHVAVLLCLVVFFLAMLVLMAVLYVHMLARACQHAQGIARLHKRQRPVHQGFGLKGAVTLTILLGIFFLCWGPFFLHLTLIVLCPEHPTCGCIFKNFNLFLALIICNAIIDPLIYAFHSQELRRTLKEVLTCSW

Row | Molecule | EC50 (human MC-1R) [nM] | inhibition of endotoxin-induced TNF-α accumulation (in words) ([1]; Balb/C mice, s.c. injection or co-injected with endotoxin in the tail vein) | % Inhibition of LPS-induced TNF-α levels [1] [%]
1 | CCCC(=O)C1(c2ccccc2)CCN(C(=O)[C@@H](Cc2ccc(OC)cc2)NC(=O)[C@@H](N)Cc2cncn2C)CC1 [Example 11] | ~20 |  | 
2 | COc1ccc(C2CNC(=O)C2)cc1OC1CCCC1 (stereo not shown) [Rolipram] |  | inhibit | 47
3 | NDP-MSH |  |  | 64
